# Calls of active or inactive are those of the source. No cut-off for these calls is given here.
# Molecular target: T1, Acetylcholinesterase (Homo sapiens, UniProt P22303)
# Experiment: Inhibition of recombinant human acetylcholinesterase using acetylthiocholine iodide as substrate preincubated with enzyme for 5 mins followed by substrate addition and measured at 2 mins interval by Ellman's method
# Settings: not given
# T1 sequence (P22303 whole entry): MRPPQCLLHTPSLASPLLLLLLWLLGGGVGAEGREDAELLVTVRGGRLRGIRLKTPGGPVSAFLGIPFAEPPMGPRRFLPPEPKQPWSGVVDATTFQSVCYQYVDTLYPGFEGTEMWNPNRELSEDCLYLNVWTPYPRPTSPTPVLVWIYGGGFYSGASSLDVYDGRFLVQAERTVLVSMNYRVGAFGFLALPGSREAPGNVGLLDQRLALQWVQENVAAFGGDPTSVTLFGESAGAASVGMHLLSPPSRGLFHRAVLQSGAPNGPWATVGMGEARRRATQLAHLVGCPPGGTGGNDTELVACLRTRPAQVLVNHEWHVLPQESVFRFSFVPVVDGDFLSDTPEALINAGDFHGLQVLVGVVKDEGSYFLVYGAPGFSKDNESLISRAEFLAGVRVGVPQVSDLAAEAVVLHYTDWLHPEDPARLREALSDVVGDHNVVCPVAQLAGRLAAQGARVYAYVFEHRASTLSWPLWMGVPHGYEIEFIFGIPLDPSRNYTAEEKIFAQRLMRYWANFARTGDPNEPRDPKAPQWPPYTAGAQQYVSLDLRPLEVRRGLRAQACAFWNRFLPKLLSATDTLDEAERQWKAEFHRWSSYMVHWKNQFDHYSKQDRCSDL
row,SMILES,IC50 [nM]
1,COc1ccc2cc3[n+](cc2c1OCc1ccccc1Br)CCc1cc2c(cc1-3)OCO2,1700
2,COc1ccc2cc3[n+](cc2c1OCc1cccc(C)c1)CCc1cc2c(cc1-3)OCO2,7300
3,COc1ccc2cc3[n+](cc2c1OCc1ccc(SC)cc1)CCc1cc2c(cc1-3)OCO2,2600
4,COC(=O)c1ccc(COc2c(OC)ccc3cc4[n+](cc23)CCc2cc3c(cc2-4)OCO3)cc1,2600
5,COc1ccc2cc3[n+](cc2c1OCc1ccc([N+](=O)[O-])cc1)CCc1cc2c(cc1-3)OCO2.[Br-],990
6,COc1ccc2cc3[n+](cc2c1OCc1ccc(C)cc1)CCc1cc2c(cc1-3)OCO2.[Br-],75800
7,COc1ccc2cc3[n+](cc2c1OCc1ccc(Cl)cc1)CCc1cc2c(cc1-3)OCO2,2500
8,COc1ccc2cc3[n+](cc2c1OCc1ccc(C#N)cc1)CCc1cc2c(cc1-3)OCO2,1700
9,COc1ccc2cc3[n+](cc2c1OCc1cccc(Br)c1)CCc1cc2c(cc1-3)OCO2,2700
10,COc1ccc2cc3[n+](cc2c1OCc1ccc(C(C)C)cc1)CCc1cc2c(cc1-3)OCO2,4200
11,COc1ccc2cc3[n+](cc2c1OCc1ccc(C(F)(F)F)cc1)CCc1cc2c(cc1-3)OCO2.[Br-],1300
12,COc1ccc2cc3[n+](cc2c1OCc1cccc([N+](=O)[O-])c1)CCc1cc2c(cc1-3)OCO2.[Br-],1450
13,COc1ccc2cc3[n+](cc2c1OCc1ccc2ccccc2c1)CCc1cc2c(cc1-3)OCO2.[Br-],1500
14,COc1ccc2cc3[n+](cc2c1OC(C)c1ccccc1)CCc1cc2c(cc1-3)OCO2.[Br-] (configuration not stated),790

# Molecular target: T1, Acetylcholinesterase
# Experiment: Noncompetitive inhibition of human acetylcholinesterase assessed as affinity towards free enzyme using acetylthiocholine iodide as substrate measured by Ellman's method based Lineweaver-Burk plot analysis
# Settings: not given
row,SMILES,Ki [nM]
1,COc1ccc2cc3[n+](cc2c1OCc1ccc(C(F)(F)F)cc1)CCc1cc2c(cc1-3)OCO2.[Br-],0.456

# System: CHO-K1
# Experiment: Cytotoxicity against CHO-K1 cells assessed as reduction in cell viability measured after 24 hrs by MTT assay
# Assay type: cell-based, Cricetulus griseus
# Settings: Cricetulus griseus, CHO-K1, 24 h; read-out: IC50
row,SMILES,IC50 [µM]
1,COc1ccc2cc3[n+](cc2c1OCc1ccccc1Br)CCc1cc2c(cc1-3)OCO2,26
2,COc1ccc2cc3[n+](cc2c1OCc1cccc(C)c1)CCc1cc2c(cc1-3)OCO2,58
3,COc1ccc2cc3[n+](cc2c1OCc1ccc(SC)cc1)CCc1cc2c(cc1-3)OCO2,43
4,COC(=O)c1ccc(COc2c(OC)ccc3cc4[n+](cc23)CCc2cc3c(cc2-4)OCO3)cc1,50
5,COc1ccc2cc3[n+](cc2c1OCc1ccc(C)cc1)CCc1cc2c(cc1-3)OCO2.[Br-],43
6,COc1ccc2cc3[n+](cc2c1OCc1ccc(Cl)cc1)CCc1cc2c(cc1-3)OCO2,13
7,COc1ccc2cc3[n+](cc2c1OCc1ccc(C#N)cc1)CCc1cc2c(cc1-3)OCO2,292
8,COc1ccc2cc3[n+](cc2c1OCc1cccc(Br)c1)CCc1cc2c(cc1-3)OCO2,32
9,COc1ccc2cc3[n+](cc2c1OCc1ccc(C(C)C)cc1)CCc1cc2c(cc1-3)OCO2,17
10,COc1ccc2cc3[n+](cc2c1OCc1ccc(C(F)(F)F)cc1)CCc1cc2c(cc1-3)OCO2.[Br-],21
11,COc1ccc2cc3[n+](cc2c1OCc1cccc([N+](=O)[O-])c1)CCc1cc2c(cc1-3)OCO2.[Br-],30
12,COc1ccc2cc3[n+](cc2c1OCc1ccc2ccccc2c1)CCc1cc2c(cc1-3)OCO2.[Br-],14
13,COc1ccc2cc3[n+](cc2c1OC(C)c1ccccc1)CCc1cc2c(cc1-3)OCO2.[Br-] (configuration not stated),42

# Same assay, conditions: cho-k1
row,SMILES,IC50
1,COc1ccc2cc3[n+](cc2c1OCc1ccc([N+](=O)[O-])cc1)CCc1cc2c(cc1-3)OCO2.[Br-],Nd(Insoluble)

# System: not listed separately
# Experiment: Antioxidant activity assessed as radical scavenging activity measured after 30 mins by microplate reader based DPPH assay
# Assay type: functional
# Settings: not given
row,SMILES,EC50 [mM]
1,COc1ccc2cc3[n+](cc2c1OCc1ccccc1Br)CCc1cc2c(cc1-3)OCO2,> 6
2,COc1ccc2cc3[n+](cc2c1OCc1cccc(C)c1)CCc1cc2c(cc1-3)OCO2,1.2
3,COc1ccc2cc3[n+](cc2c1OCc1ccc(SC)cc1)CCc1cc2c(cc1-3)OCO2,> 6
4,COC(=O)c1ccc(COc2c(OC)ccc3cc4[n+](cc23)CCc2cc3c(cc2-4)OCO3)cc1,5.3
5,COc1ccc2cc3[n+](cc2c1OCc1ccc([N+](=O)[O-])cc1)CCc1cc2c(cc1-3)OCO2.[Br-],5
6,COc1ccc2cc3[n+](cc2c1OCc1ccc(C)cc1)CCc1cc2c(cc1-3)OCO2.[Br-],1.9
7,COc1ccc2cc3[n+](cc2c1OCc1ccc(Cl)cc1)CCc1cc2c(cc1-3)OCO2,5.2
8,COc1ccc2cc3[n+](cc2c1OCc1ccc(C#N)cc1)CCc1cc2c(cc1-3)OCO2,> 6
9,COc1ccc2cc3[n+](cc2c1OCc1cccc(Br)c1)CCc1cc2c(cc1-3)OCO2,2.2
10,COc1ccc2cc3[n+](cc2c1OCc1ccc(C(C)C)cc1)CCc1cc2c(cc1-3)OCO2,1.3
11,COc1ccc2cc3[n+](cc2c1OCc1ccc(C(F)(F)F)cc1)CCc1cc2c(cc1-3)OCO2.[Br-],5.3
12,COc1ccc2cc3[n+](cc2c1OCc1cccc([N+](=O)[O-])c1)CCc1cc2c(cc1-3)OCO2.[Br-],5.6
13,COc1ccc2cc3[n+](cc2c1OCc1ccc2ccccc2c1)CCc1cc2c(cc1-3)OCO2.[Br-],> 6
14,COc1ccc2cc3[n+](cc2c1OC(C)c1ccccc1)CCc1cc2c(cc1-3)OCO2.[Br-] (configuration not stated),5.6

# System: not listed separately
# Experiment: Inhibition of HFIP-pretreated Tau (306 to 336) (unknown origin) self-aggregation at 25 uM measured at interval of 10 mins for overnight with 1 min shaking by thioflavin-T fluorescence method
# Settings: Homo sapiens
row,SMILES,inhibition [%]
1,COc1ccc2cc3[n+](cc2c1OCc1ccc(C)cc1)CCc1cc2c(cc1-3)OCO2.[Br-],31.9
2,COc1ccc2cc3[n+](cc2c1OCc1ccc2ccccc2c1)CCc1cc2c(cc1-3)OCO2.[Br-],62
3,COc1ccc2cc3[n+](cc2c1OC(C)c1ccccc1)CCc1cc2c(cc1-3)OCO2.[Br-] (configuration not stated),38.3

# Molecular target: T1, Acetylcholinesterase
# Experiment: Noncompetitive inhibition of human acetylcholinesterase assessed as decrease in apparent Vmax with unchanged Km using acetylthiocholine iodide as substrate by Lineweaver-Burk plot analysis
# Settings: not given
row,SMILES,inhibition
1,COc1ccc2cc3[n+](cc2c1OCc1ccc(C(F)(F)F)cc1)CCc1cc2c(cc1-3)OCO2.[Br-],Active

# Molecular target: T2, Prolyl endopeptidase (Homo sapiens, UniProt P48147)
# T2 sequence (P48147 whole entry): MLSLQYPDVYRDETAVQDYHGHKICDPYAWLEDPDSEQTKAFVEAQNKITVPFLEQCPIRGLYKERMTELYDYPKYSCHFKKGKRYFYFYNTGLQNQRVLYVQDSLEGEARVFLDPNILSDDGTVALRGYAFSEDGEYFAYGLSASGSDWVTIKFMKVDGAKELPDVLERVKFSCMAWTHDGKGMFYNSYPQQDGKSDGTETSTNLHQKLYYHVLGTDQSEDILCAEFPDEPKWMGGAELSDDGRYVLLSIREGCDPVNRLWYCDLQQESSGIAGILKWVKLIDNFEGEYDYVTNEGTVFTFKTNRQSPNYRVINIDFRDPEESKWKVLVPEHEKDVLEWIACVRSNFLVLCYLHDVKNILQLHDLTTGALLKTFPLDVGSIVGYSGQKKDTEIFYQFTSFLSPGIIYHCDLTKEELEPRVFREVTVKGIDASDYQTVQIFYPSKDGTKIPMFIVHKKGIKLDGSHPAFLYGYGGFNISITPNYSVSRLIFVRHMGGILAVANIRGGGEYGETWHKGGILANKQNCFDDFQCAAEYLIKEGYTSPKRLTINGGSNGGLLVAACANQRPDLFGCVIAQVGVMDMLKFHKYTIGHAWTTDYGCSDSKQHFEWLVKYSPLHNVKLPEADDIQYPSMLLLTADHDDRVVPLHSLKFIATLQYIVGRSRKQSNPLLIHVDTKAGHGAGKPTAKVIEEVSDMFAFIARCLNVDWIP
# Experiment: not given
# Settings: not given
row,SMILES,IC50 [µM]
1,COc1ccc2cc3[n+](cc2c1OCc1ccccc1Br)CCc1cc2c(cc1-3)OCO2,38.9
2,COc1ccc2cc3[n+](cc2c1OCc1cccc(C)c1)CCc1cc2c(cc1-3)OCO2,79.1
3,COc1ccc2cc3[n+](cc2c1OCc1ccc(SC)cc1)CCc1cc2c(cc1-3)OCO2,34
4,COC(=O)c1ccc(COc2c(OC)ccc3cc4[n+](cc23)CCc2cc3c(cc2-4)OCO3)cc1,47.6
5,COc1ccc2cc3[n+](cc2c1OCc1ccc([N+](=O)[O-])cc1)CCc1cc2c(cc1-3)OCO2.[Br-],21.2
6,COc1ccc2cc3[n+](cc2c1OCc1ccc(C)cc1)CCc1cc2c(cc1-3)OCO2.[Br-],10.7
7,COc1ccc2cc3[n+](cc2c1OCc1ccc(Cl)cc1)CCc1cc2c(cc1-3)OCO2,39.4
8,COc1ccc2cc3[n+](cc2c1OCc1ccc(C#N)cc1)CCc1cc2c(cc1-3)OCO2,36.5
9,COc1ccc2cc3[n+](cc2c1OCc1cccc(Br)c1)CCc1cc2c(cc1-3)OCO2,59.6
10,COc1ccc2cc3[n+](cc2c1OCc1ccc(C(C)C)cc1)CCc1cc2c(cc1-3)OCO2,53.3
11,COc1ccc2cc3[n+](cc2c1OCc1ccc(C(F)(F)F)cc1)CCc1cc2c(cc1-3)OCO2.[Br-],27.4
12,COc1ccc2cc3[n+](cc2c1OCc1cccc([N+](=O)[O-])c1)CCc1cc2c(cc1-3)OCO2.[Br-],24.7
13,COc1ccc2cc3[n+](cc2c1OCc1ccc2ccccc2c1)CCc1cc2c(cc1-3)OCO2.[Br-],28.5
14,COc1ccc2cc3[n+](cc2c1OC(C)c1ccccc1)CCc1cc2c(cc1-3)OCO2.[Br-] (configuration not stated),29.5

# System: not listed separately
# Experiment: in vitro
# Settings: PAMPA, pH 7.4
# Description: Permeability of the compound at pH 7.4 measured after 6 hrs by PAMPA method
row,SMILES,Papp at 6 h [×10⁻⁶ cm/s]
1,COc1ccc2cc3[n+](cc2c1OCc1ccc([N+](=O)[O-])cc1)CCc1cc2c(cc1-3)OCO2.[Br-],1.4
2,COc1ccc2cc3[n+](cc2c1OCc1ccc(C)cc1)CCc1cc2c(cc1-3)OCO2.[Br-],0.8
3,COc1ccc2cc3[n+](cc2c1OCc1ccc(C(F)(F)F)cc1)CCc1cc2c(cc1-3)OCO2.[Br-],0.8
4,COc1ccc2cc3[n+](cc2c1OCc1cccc([N+](=O)[O-])c1)CCc1cc2c(cc1-3)OCO2.[Br-],1.2
5,COc1ccc2cc3[n+](cc2c1OCc1ccc2ccccc2c1)CCc1cc2c(cc1-3)OCO2.[Br-],0.8
6,COc1ccc2cc3[n+](cc2c1OC(C)c1ccccc1)CCc1cc2c(cc1-3)OCO2.[Br-] (configuration not stated),0.4

# From ChEMBL document CHEMBL4706517, “Discovery of novel berberine derivatives with balanced cholinesterase and prolyl oligopeptidase inhibition profile” (Eur J Med Chem, 2020)
